Assay results published in PubChem BioAssay AID330 (DTP/NCI, 2004).
Several values for one entry are separate records, joined by “and”; a condition that tells them apart may be missing. Equal entries are not always repeated. Inconclusive results and toxic doses are left out.

System: P388 leukemia ip, CD2F1 mice, survival T/C
Test: NCI In Vivo Anticancer Drug Screen. Data for tumor model P388 Leukemia (intraperitoneal) in CD2F1 (CDF1) mice
Conditions: endpoint: median survival time, higher = longer survival
Outline: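 Mice carrying the transplanted tumor received test compound or vehicle. Survival was recorded in each group, and the value is the treated-group measurement divided by that of the vehicle-treated control group.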

[1] = dose: 100.0 mg/kg/injection, schedule: Q04DX003 (ip), vehicle: saline with Tween-80
[2] = dose: 200.0 mg/kg/injection, schedule: Q04DX003 (ip), vehicle: saline with Tween-80
[3] = dose: 60.0 mg/kg/injection, schedule: Q01DX005 (ip), vehicle: saline with Tween-80
[4] = dose: 120.0 mg/kg/injection, schedule: Q01DX005 (ip), vehicle: saline with Tween-80
[5] = dose: 240.0 mg/kg/injection, schedule: Q01DX005 (ip), vehicle: saline with Tween-80
[6] = dose: 50.0 mg/kg/injection, schedule: Q01DX005 (ip), vehicle: saline with Tween-80
[7] = dose: 100.0 mg/kg/injection, schedule: Q01DX005 (ip), vehicle: saline with Tween-80
[8] = dose: 200.0 mg/kg/injection, schedule: Q01DX005 (ip), vehicle: saline with Tween-80
[9] = dose: 100.0 mg/kg/injection, schedule: Q01DX009 (ip), vehicle: Klucel (hydroxypropylcellulose) (HPC)
[10] = dose: 50.0 mg/kg/injection, schedule: Q01DX005 (ip), vehicle: Klucel (hydroxypropylcellulose) (HPC)
[11] = dose: 100.0 mg/kg/injection, schedule: Q01DX005 (ip), vehicle: Klucel (hydroxypropylcellulose) (HPC)
[12] = dose: 200.0 mg/kg/injection, schedule: Q01DX005 (ip), vehicle: Klucel (hydroxypropylcellulose) (HPC)

For `COC(=O)c1[nH]c(=O)[nH]c(=O)c1N`, the T/C (dose: 25.0 mg/kg/injection, schedule: Q04DX003 (ip), vehicle: saline with Tween-80) was 100 % of control, the T/C (dose: 50.0 mg/kg/injection, schedule: Q04DX003 (ip), vehicle: saline with Tween-80) was 101 % of control and the T/C [1] was 100 % of control. For the same molecule, the T/C [2] was 102 % of control.

With `CC(C)=CN=Cc1nc(Cc2ccccc2)oc1O` the T/C [3] was 105 % of control, the T/C [4] was 96 % of control and the T/C [5] was 94 % of control.

In the case of `Clc1ccccc1C(Nc1cnccn1)Nc1cnccn1`, the T/C [6] is reported as 120 % of control, the T/C [7] is reported as 114 % of control and the T/C [8] is reported as 110 % of control. For the same molecule, the T/C (dose: 400.0 mg/kg/injection, schedule: Q01DX005 (ip), vehicle: saline with Tween-80) was 121 % of control.

For `C=CC1CCCCC1=O` (centres undefined), the T/C [6] was 110 % of control, the T/C [7] was 111 % of control and the T/C [8] was 111 % of control.

`Cn1nc(N)c2ncc(-c3ccc(Cl)cc3)nc21` was tested, and the T/C [1] was 90 % of control and the T/C [2] was 95 % of control.

`CC(=O)Oc1ccc(OC(C)=O)c2c(OC(C)=O)c(C(CC=C(C)C)OC(C)=O)cc(OC(C)=O)c12` (centres undefined) was tested, and the T/C (dose: 12.5 mg/kg/injection, schedule: Q04DX002 (ip), vehicle: saline with Tween-80) was 108 % of control and the T/C (dose: 25.0 mg/kg/injection, schedule: Q04DX002 (ip), vehicle: saline with Tween-80) was 117 % of control.

With `Cc1ccc(C(=O)CC2=NC3NN(c4ccccc4)C(=O)C3=C2CC(=O)c2ccc(C)cc2)cc1` (centres undefined) the T/C (dose: 60.0 mg/kg/injection, schedule: Q01DX005 (ip), vehicle: suspension in saline) was 94 % of control, the T/C (dose: 120.0 mg/kg/injection, schedule: Q01DX005 (ip), vehicle: suspension in saline) was 98 % of control and the T/C (dose: 240.0 mg/kg/injection, schedule: Q01DX005 (ip), vehicle: suspension in saline) was 102 % of control.

With `NCC(=O)NC(CCCN=C(N)N)C(=O)O` (centres undefined) the T/C (dose: 50.0 mg/kg/injection, schedule: Q01DX005 (ip), vehicle: saline) was 96 % of control, the T/C (dose: 100.0 mg/kg/injection, schedule: Q01DX005 (ip), vehicle: saline) was 99 % of control and the T/C (dose: 200.0 mg/kg/injection, schedule: Q01DX005 (ip), vehicle: saline) was 99 % of control.

In the case of `COc1ccc2c(NCCNc3c4ccccc4nc4cc(OC)ccc34)c3ccccc3nc2c1`, the T/C (dose: 0.62 mg/kg/injection, schedule: Q01DX009 (ip), vehicle: other) is reported as 90 % of control, the T/C (dose: 1.25 mg/kg/injection, schedule: Q01DX009 (ip), vehicle: other) is reported as 90 % of control and the T/C (dose: 2.5 mg/kg/injection, schedule: Q01DX009 (ip), vehicle: other) is reported as 96 % of control. For the same molecule, the T/C (dose: 5.0 mg/kg/injection, schedule: Q01DX009 (ip), vehicle: other) was 100 % of control, the T/C (dose: 10.0 mg/kg/injection, schedule: Q01DX009 (ip), vehicle: other) was 106 % of control and the T/C (dose: 20.0 mg/kg/injection, schedule: Q01DX009 (ip), vehicle: other) was 96 % of control.

For `CC(=O)[O][Sn]([CH3])([CH3])[c]1ccccc1`, the T/C (dose: 1.56 mg/kg/injection, schedule: Q01DX009 (ip), vehicle: saline) was 98 % of control and 104 % of control, the T/C (dose: 3.12 mg/kg/injection, schedule: Q01DX009 (ip), vehicle: saline) was 98 % of control and 110 % of control and the T/C (dose: 6.25 mg/kg/injection, schedule: Q01DX009 (ip), vehicle: saline) was 98 % of control and 117 % of control and 96 % of control. For the same molecule, the T/C (dose: 12.5 mg/kg/injection, schedule: Q01DX009 (ip), vehicle: saline) was 104 % of control and 120 % of control.

`O=c1[nH]cc(N=Cc2cccc3c2OCO3)c(=O)[nH]1` was tested, and the T/C (dose: 100.0 mg/kg/injection, schedule: Q01DX001 (ip), vehicle: suspension in saline) was 99 % of control and the T/C (dose: 200.0 mg/kg/injection, schedule: Q01DX001 (ip), vehicle: suspension in saline) was 86 % of control.

In the case of `Cc1noc(C)c1-c1onc2ccc(Cl)cc12`, the T/C [9] is reported as 96 % of control and the T/C (dose: 200.0 mg/kg/injection, schedule: Q01DX009 (ip), vehicle: Klucel (hydroxypropylcellulose) (HPC)) is reported as 96 % of control.

In the case of `Cc1cc2nc(CC(=O)c3cccc([N+](=O)[O-])c3)c(=O)[nH]c2cc1C`, the T/C (dose: 7.5 mg/kg/injection, schedule: Q01DX005 (ip), vehicle: saline with Tween-80) is reported as 95 % of control, the T/C (dose: 15.0 mg/kg/injection, schedule: Q01DX005 (ip), vehicle: saline with Tween-80) is reported as 96 % of control and the T/C (dose: 30.0 mg/kg/injection, schedule: Q01DX005 (ip), vehicle: saline with Tween-80) is reported as 91 % of control.

`COc1nc(NC2OC(COC(C)=O)C(OC(C)=O)C(OC(C)=O)C2OC(C)=O)c(N=CC=Nc2c(NC3OC(COC(C)=O)C(OC(C)=O)C(OC(C)=O)C3OC(C)=O)nc(OC)[nH]c2=O)c(=O)[nH]1` (centres undefined) was tested, and the T/C [3] was 89 % of control, the T/C [4] was 90 % of control and the T/C [5] was 95 % of control.

`O=C(O)c1cnc2cc(F)ccc2c1Nc1ccc2c(c1)OCO2` was tested, and the T/C (dose: 60.0 mg/kg/injection, schedule: Q01DX005 (ip), vehicle: Klucel + Tween-80) was 97 % of control, the T/C (dose: 120.0 mg/kg/injection, schedule: Q01DX005 (ip), vehicle: Klucel + Tween-80) was 94 % of control and the T/C (dose: 240.0 mg/kg/injection, schedule: Q01DX005 (ip), vehicle: Klucel + Tween-80) was 89 % of control.

`O=C(Nc1cccc(NC(=O)c2nn[nH]n2)n1)c1nn[nH]n1` was tested, and the T/C [10] was 105 % of control, the T/C [11] was 105 % of control and the T/C [12] was 99 % of control.

For `Cc1ccc(N=CN(C)Sc2ccc(C(C)(C)C)cc2)c(C)c1`, the T/C (dose: 50.0 mg/kg/injection, schedule: Q01DX009 (ip), vehicle: Klucel (hydroxypropylcellulose) (HPC)) was 103 % of control and the T/C [9] was 117 % of control.

`Cc1cc(C(=O)O)nn1-c1ccc(S(=O)(=O)N2CCC(=O)N(C3CCCCC3)C2=S)cc1` was tested, and the T/C [6] was 95 % of control, the T/C [7] was 101 % of control and the T/C [8] was 101 % of control.

`COc1ccc(C(=O)c2ccccc2)c(C(=O)O)c1` was tested, and the T/C [10] was 101 % of control, the T/C [11] was 97 % of control and the T/C [12] was 104 % of control.

For `COc1cc(C)c(O)c(C/C=C(\C)CC(=O)[C@H]2[C@]3(C)CCC[C@]3(C)[C@@]23C[C@H](O)C(C)(C)O3)c1`, the T/C (dose: 8.75 mg/kg/injection, schedule: Q01DX005 (ip), vehicle: saline with Tween-80) was 95 % of control, the T/C (dose: 17.5 mg/kg/injection, schedule: Q01DX005 (ip), vehicle: saline with Tween-80) was 92 % of control and the T/C (dose: 35.0 mg/kg/injection, schedule: Q01DX005 (ip), vehicle: saline with Tween-80) was 96 % of control.

`CCCC[n+]1c(/C=C\c2c(OC)cc(OC)cc2OC)ccc2ccccc21` was tested, and the T/C (dose: 0.19 mg/kg/injection, schedule: Q01DX009 (ip), vehicle: Klucel (hydroxypropylcellulose) (HPC)) was 115 % of control, the T/C (dose: 0.39 mg/kg/injection, schedule: Q01DX009 (ip), vehicle: Klucel (hydroxypropylcellulose) (HPC)) was 115 % of control and 122 % of control and the T/C (dose: 0.78 mg/kg/injection, schedule: Q01DX009 (ip), vehicle: Klucel (hydroxypropylcellulose) (HPC)) was 105 % of control.

With `NC(=O)c1[nH]cnc1/N=N/N(CCCl)Cc1ccccc1` the T/C (dose: 44.0 mg/kg/injection, schedule: Q01DX009 (ip), vehicle: Klucel (hydroxypropylcellulose) (HPC)) was 122 % of control, the T/C [9] was 196 % of control and the T/C (dose: 150.0 mg/kg/injection, schedule: Q01DX009 (ip), vehicle: Klucel (hydroxypropylcellulose) (HPC)) was 196 % of control. For the same molecule, the T/C (dose: 200.0 mg/kg/injection, schedule: Q04DX003 (ip), vehicle: Klucel (hydroxypropylcellulose) (HPC)) was 182 % of control and the T/C (dose: 400.0 mg/kg/injection, schedule: Q04DX003 (ip), vehicle: Klucel (hydroxypropylcellulose) (HPC)) was 256 % of control.

In the case of `O=NN(CCCl)C(=O)NC1[C@H](O)CCC[C@@H]1O` (some centres undefined), the T/C (dose: 0.63 mg/kg/injection, schedule: Q01DX005 (ip), vehicle: saline) is reported as 118 % of control, the T/C (dose: 2.5 mg/kg/injection, schedule: Q01DX005 (ip), vehicle: saline) is reported as 159 % of control and the T/C (dose: 5.0 mg/kg/injection, schedule: Q01DX005 (ip), vehicle: saline) is reported as 190 % of control and 267 % of control. For the same molecule, the T/C (dose: 10.0 mg/kg/injection, schedule: Q01DX005 (ip), vehicle: saline) was 116 % of control and 206 % of control.

In the case of `COC(=O)NN(C(=O)OC)C1CCC2C1c1ccccc1N(C(=O)OC)N2C(=O)OC` (centres undefined), the T/C (dose: 60.0 mg/kg/injection, schedule: Q01DX005 (ip), vehicle: Klucel (hydroxypropylcellulose) (HPC)) is reported as 108 % of control, the T/C (dose: 120.0 mg/kg/injection, schedule: Q01DX005 (ip), vehicle: Klucel (hydroxypropylcellulose) (HPC)) is reported as 113 % of control and the T/C (dose: 240.0 mg/kg/injection, schedule: Q01DX005 (ip), vehicle: Klucel (hydroxypropylcellulose) (HPC)) is reported as 103 % of control.

For `Cc1cnc(Sc2ncccn2)c(C(=O)O)c1[N+](=O)[O-]`, the T/C [10] was 101 % of control, the T/C [11] was 99 % of control and the T/C [12] was 100 % of control.
